Data taken from US8916599B2, “1H-benz imidazole-5-carboxamides as anti-inflammatory agents” (Orexo AB, priority 2008, dated 2014).

What follows are molecules tested against T1, recombinant human mPGES-1 (Homo sapiens, UniProt O14684) (assay: mPGES-1 inhibition test (microsomes, PGH2 substrate, HTRF detection of PGE2)). Conditions: inhibition of mPGES-1 at 10 μM.
T1 construct: made in house; host or cells: Rosetta E. coli (microsomal/membrane fraction)
T1 sequence (O14684 1-152): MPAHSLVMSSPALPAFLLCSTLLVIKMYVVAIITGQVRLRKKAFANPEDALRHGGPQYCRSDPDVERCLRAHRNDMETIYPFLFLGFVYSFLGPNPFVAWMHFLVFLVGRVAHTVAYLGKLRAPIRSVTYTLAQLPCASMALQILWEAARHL
Format: biochemical
Method in brief: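 E. coli microsomal enzyme, 0.1 M KPi pH 7.4 + 2.5 mM GSH; cpd (DMSO) 25 min RT; PGH2 1 min; acidic FeCl2 stop. Dilute 750-fold, HTRF (d2/Eu-cryptate anti-PGE2, overnight 4 °C), 665/620 ratio vs PGE2 standard curve.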

Structure (SMILES) | inhibition at 10 µM
Cn1c(Nc2c(Cl)cccc2Cl)nc2cc(C(=O)NCc3c(C(F)(F)F)ccc[n+]3[O-])c(F)cc21 [Example 568, 2-((2-(2,6-Dichlorophenylamino)-6-fluoro-1-methyl-1H-benzimidazole-5-carboxamido)methyl)-3-trifluoromethyl-pyridine 1-oxide] | 60%
COc1ccnc(CNC(=O)c2cc3nc(Nc4c(Cl)cccc4Cl)n(C)c3cc2F)c1 [Example 569, 2-(2,6-Dichlorophenylamino)-6-fluoro-N-((4-methoxypyridin-2-yl)methyl)-1-methyl-1H-benzimidazole-5-carboxamide] | 81%
CC(C)NC(=O)c1cc(Br)c2[nH]c(Nc3c(Cl)cccc3Cl)nc2c1 [Example 570, 7-Bromo-N-isopropyl-2-(2,6-dichlorophenylamino)-1H-benzimidazole-5-carboxamide] | 84%
COCCOc1cccc(NC(=O)c2ccc3[nH]c(Nc4c(Cl)cccc4Cl)nc3c2)n1 [Example 571, 2-(2,6-Dichlorophenylamino)-N-(6-(2-methoxyethoxy)pyridin-2-yl)-1H-benzimidazole-5-carboxamide] | 86%
CC(C)c1ccccc1Nc1nc2cc(C(=O)Nc3ccc(Br)cc3)ccc2n1C [Example 572, N-(4-Bromophenyl)-2-(2-isopropylphenylamino)-1-methyl-1H-benzimidazole-5-carboxamide] | 45%
Cn1c(Nc2cc(C(=O)O)ccc2Cl)nc2cc(C(=O)Nc3ccc(Br)cc3)ccc21 [Example 573, 3-(5-(4-Bromophenylcarbamoyl)-1-methyl-1H-benzimidazol-2-yl-amino)-4-chlorobenzoic acid] | 60%
CNC(=O)c1ccc(Cl)c(Nc2nc3cc(C(=O)Nc4ccc(Br)cc4)ccc3n2C)c1 [Example 574, N-(4-Bromophenyl)-2-(2-chloro-5-(methylcarbamoyl)-phenylamino)-1-methyl-1H-benzimidazole-5-carboxamide] | 56%
CN(C)c1cc(C(F)(F)F)cc(NC(=O)c2cc3nc(Nc4c(Cl)cc(F)cc4Cl)[nH]c3cc2OCC(F)(F)F)n1 [Example 575, 2-(2,6-Dichloro-4-fluoro-phenylamino)-N-(6-dimethylamino-4-trifluoromethyl-pyridin-2-yl)-6-(2,2,2-trifluorethoxy)-1H-benzimidazole-5-carboxamide] | 82%
COc1cc2[nH]c(Nc3c(Cl)cccc3Cl)nc2cc1C(=O)NCc1ncccc1C [Example 577, 2-(2,6-Dichlorophenylamino)-6-methoxy-N-((3-methylpyridin-2-yl)-methyl)-1H-benzimidazole-5-carboxamide] | 100%
Cn1c(Nc2c(Cl)cc(F)cc2Cl)nc2cc(C(=O)Nc3ccc(Br)cc3)ccc21 [Example 578, 2-(2,6-Dichloro-4-fluoro-phenylamino)-N-(4-bromo-phenyl)-1-methyl-1H-benzimidazole-5-carboxamide] | 100%
COc1cc2[nH]c(Nc3c(Cl)cc(F)cc3Cl)nc2cc1C(=O)NCc1ncccc1C(F)(F)F [Example 580, 2-(2,6-Dichloro-4-fluoro-phenylamino)-6-methoxy-N-((3-trifluoromethyl-pyridin-2-yl)-methyl)-1H-benzimidazole-5-carboxamide] | 100%
COc1cc2[nH]c(Nc3c(Cl)cc(F)cc3Cl)nc2cc1C(=O)Nc1ccc(Br)cc1 [Example 581, 2-(2,6-Dichloro-4-fluoro-phenylamino)-6-methoxy-N-(4-bromo-phenyl)-1H-benzimidazole-5-carboxamide] | 100%
O=C(Nc1ccc(Br)cc1)c1cc2nc(Nc3c(Cl)cc(F)cc3Cl)[nH]c2cc1OCC(F)(F)F [Example 582, 2-(2,6-Dichloro-4-fluoro-phenylamino)-N-(4-bromo-phenyl)-6-(2,2,2-trifluorethoxy)-1H-benzimidazole-5-carboxamide] | 100%
O=C(N[C@H]1CC[C@H](C(F)(F)F)CC1)c1cc2nc(Nc3c(Cl)cc(F)cc3Cl)[nH]c2cc1OCC(F)(F)F [Example 583, 2-(2,6-Dichloro-4-fluoro-phenylamino)-N-(trans-4-trifluoromethyl-cyclohex-1-yl)-6-(2,2,2-trifluoroethoxy)-1H-benzimidazole-5-carboxamide] | 95%
O=C(Nc1ccc(Br)cc1)c1cc2nc(Nc3c(Cl)cc(F)cc3Cl)[nH]c2cc1OCCF [Example 585, 2-(2,6-Dichloro-4-fluoro-phenylamino)-N-(4-bromo-phenyl)-6-(2-fluoroethoxy)-1H-benzimidazole-5-carboxamide] | 100%
O=C(Nc1ccc(Br)cc1)c1cc2nc(Nc3c(Cl)cc(F)cc3Cl)[nH]c2cc1OCC(F)F [Example 586, 2-(2,6-Dichloro-4-fluoro-phenylamino)-N-(4-bromo-phenyl)-6-(2,2-difluoroethoxy)-1H-benzimidazole-5-carboxamide] | 100%
O=C(Nc1ccc(Br)cc1)c1cc2nc(Nc3c(F)ccc(Cl)c3Cl)[nH]c2cc1OCC(F)(F)F [Example 588, N-(4-Bromo-phenyl)-2-(2,3-dichloro-6-fluoro-phenylamino)-6-(2,2,2-trifluoroethoxy)-1H-benzimidazole-5-carboxamide] | 100%
O=C(Nc1ccc(Br)cc1)c1cc2nc(Nc3c(Cl)cccc3Cl)[nH]c2cc1OCC(F)(F)F [Example 590, 2-(2,6-Dichloro-phenylamino)-N-(4-bromo-phenyl)-6-(2,2,2-trifluoroethoxy)-1H-benzimidazole-5-carboxamide] | 96%
O=C(Nc1ccc(Br)cc1)c1cc2nc(Nc3c(Cl)ccc(Cl)c3F)[nH]c2cc1OCC(F)(F)F [Example 593, 2-(3,6-Dichloro-2-fluoro-phenylamino)-N-(4-bromophenyl)-6-(2,2,2-trifluorethoxy)-1H-benzimidazole-5-carboxamide] | 97%
O=C(Nc1ccc(Br)cc1)c1cc2nc(Nc3c(F)ccc(F)c3Cl)[nH]c2cc1OCC(F)(F)F [Example 595, 2-(2-Chloro-3,6-difluoro-phenylamino)-N-(4-bromophenyl)-6-(2,2,2-trifluorethoxy)-1H-benzimidazole-5-carboxamide] | 100%

Now from value to molecule:

inhibition at 10 µM | Structure (SMILES)
100% | COc1cc2[nH]c(Nc3c(Cl)cc(F)cc3Cl)nc2cc1C(=O)N[C@H]1CC[C@H](C(F)(F)F)CC1 [Example 579, 2-(2,6-Dichloro-4-fluoro-phenylamino)-6-methoxy-N-(trans-4-trifluoromethyl-cyclohex-1-yl)-1H-benzimidazole-5-carboxamide]
96% | O=C(N[C@H]1CC[C@H](C(F)(F)F)CC1)c1cc2nc(Nc3c(Cl)cc(F)cc3Cl)[nH]c2cc1OCCF [Example 584, 2-(2,6-Dichloro-4-fluoro-phenylamino)-N-(trans-4-trifluoro-cyclohex-1-yl)-6-(2-fluoroethoxy)-1H-benzimidazole-5-carboxamide]
97% | O=C(N[C@H]1CC[C@H](C(F)(F)F)CC1)c1cc2nc(Nc3c(Cl)cc(F)cc3Cl)[nH]c2cc1OCC(F)F [Example 587, 2-(2,6-Dichloro-4-fluoro-phenylamino)-N-(trans-4-trifluoromethyl-cyclohex-1-yl)-6-(2,2-difluoroethoxy)-1H-benzimidazole-5-carboxamide]
100% | O=C(N[C@H]1CC[C@H](C(F)(F)F)CC1)c1cc2nc(Nc3c(Cl)cccc3Cl)[nH]c2cc1OCC(F)(F)F [Example 589, 2-(2,6-Dichloro-phenylamino)-6-(2,2,2-trifluoroethoxy)-N-(trans-4-trifluormethyl-cyclohex-1-yl)-1H-benzimidazole-5-carboxamide]
99% | O=C(NC1CCC(C(F)(F)F)CC1)c1cc2nc(Nc3c(F)ccc(Cl)c3Cl)[nH]c2cc1OCC(F)(F)F (stereo not drawn) [Example 591, 2-(2,3-Dichloro-6-fluoro-phenylamino)-6-(2,2,2-trifluoro-ethoxy)-N-(4-trans-trifluoromethyl-cyclohex-1-yl) 1H-benzimidazole-5-carboxamide]
97% | O=C(N[C@H]1CC[C@H](C(F)(F)F)CC1)c1cc2nc(Nc3c(Cl)ccc(Cl)c3F)[nH]c2cc1OCC(F)(F)F [Example 592, 2-(3,6-Dichloro-2-fluoro-phenylamino)-N-(4-trans-trifluoromethyl-cyclohex-1-yl)-6-(2,2,2-trifluorethoxy)-1H-benzimidazole-5-carboxamide]
94% | O=C(N[C@H]1CC[C@H](C(F)(F)F)CC1)c1cc2nc(Nc3c(F)ccc(F)c3Cl)[nH]c2cc1OCC(F)(F)F [Example 594, 2-(2-Chloro-3,6-difluoro-phenylamino)-N-(4-trans-trifluoromethyl-cyclohex-1-yl)-6-(2,2,2-trifluorethoxy)-1H-benzimidazole-5-carboxamide]
95% | CC1(C)CCC(NC(=O)c2cc3nc(Nc4c(Cl)ccc(Cl)c4F)[nH]c3cc2F)CC1 [Example 596, 2-(3,6-Dichloro-2-fluoro-phenylamino)-N-(4,4-dimethyl-cyclohex-1-yl)-6-fluoro-1H-benzimidazole-5-carboxamide]
100% | O=C(N[C@H]1CC[C@H](C(F)(F)F)CC1)c1cc2nc(Nc3c(Cl)ccc(Cl)c3F)[nH]c2cc1F [Example 597, 2-(3,6-Dichloro-2-fluoro-phenylamino)-N-(trans-4-trifluoromethyl-cyclohex-1-yl)-6-fluoro-1H-benzimidazole-5-carboxamide]
100% | O=C(Nc1cccc(Cl)c1)c1cc2nc(Nc3c(Cl)ccc(Cl)c3F)[nH]c2cc1F [Example 598, 2-(3,6-Dichloro-2-fluoro-phenylamino)-N-(3-chlorphenyl)-6-fluoro-1H-benzimidazole-5-carboxamide]
